Assay results: patent publication US20080176225A1, “MEMBRANE BOUND REPORTER GENE SYSTEM” (priority 2007, published 2008)

Assays:
mβG-eB7 [1] = biological target: T1, mβG-eB7 (Mus musculus, UniProt P12265, G265D/I320V); assay: Biodistribution by optical imaging of whole-body frozen sections after i.v. FDGlcU or fluorescein; format: in vivo; settings: 30 minutes after i.v. injection of 500 μg
T1 construct: expressed in transfected cells
T1 sequence (P12265 with tags, fused parts or gaps G265D/I320V): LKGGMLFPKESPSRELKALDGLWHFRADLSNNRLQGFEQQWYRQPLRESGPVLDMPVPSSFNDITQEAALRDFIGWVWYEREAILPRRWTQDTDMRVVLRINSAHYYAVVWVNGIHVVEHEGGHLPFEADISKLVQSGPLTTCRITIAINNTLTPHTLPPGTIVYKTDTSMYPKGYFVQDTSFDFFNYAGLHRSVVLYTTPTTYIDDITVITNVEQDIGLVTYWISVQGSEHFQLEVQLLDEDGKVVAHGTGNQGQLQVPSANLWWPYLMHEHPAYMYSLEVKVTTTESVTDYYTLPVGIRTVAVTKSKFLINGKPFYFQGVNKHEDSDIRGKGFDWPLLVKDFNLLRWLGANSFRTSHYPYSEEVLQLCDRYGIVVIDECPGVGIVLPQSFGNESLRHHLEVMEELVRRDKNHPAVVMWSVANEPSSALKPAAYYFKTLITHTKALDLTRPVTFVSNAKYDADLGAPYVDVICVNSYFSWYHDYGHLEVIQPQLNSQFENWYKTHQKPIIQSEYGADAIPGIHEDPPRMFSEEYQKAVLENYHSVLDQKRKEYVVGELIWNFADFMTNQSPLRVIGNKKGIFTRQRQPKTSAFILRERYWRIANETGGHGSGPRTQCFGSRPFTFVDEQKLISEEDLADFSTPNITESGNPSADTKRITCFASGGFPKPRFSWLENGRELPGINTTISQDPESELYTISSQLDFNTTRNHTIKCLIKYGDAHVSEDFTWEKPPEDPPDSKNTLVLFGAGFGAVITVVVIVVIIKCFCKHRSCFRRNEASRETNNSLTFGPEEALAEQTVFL
Description: In vivo biodistribution of fluorescein was measured around 30 minutes after i.v. injection of the substrate, FDGlcU, (left panel) or fluorescein (right panel). The biodistribution of activated FDGlcU was examined by killing tumor-bearing mice 30 minutes after they received an injection of FDGlcU or fluorescein and then performing optical imaging of whole-body frozen sections. The intensity of the fluorescence of whole-body sections was measured with the IVIS® Imaging System 50 (Xenogen, Alameda, Calif.).
For example, mice (n=3) were i.v. injected with 500 μg FDGlcU or fluorescein 30 min before the mice were dipped into isopentane at liquid nitrogen temperatures and embedded on a cryostat holder (7×5 cm) in 4% carboxylmethylcellulose. The fluorescence signals of 30 μm whole-body sections were measured on a IVIS® Imaging System 50 (Xenogen, Alameda, Calif.) and the regions of interest were analyzed with Living Image® software (Xenogen).
FIG. 9 is a graph showing a comparison of the results of the example of FIG. 8 in different organ regions of interest according to one embodiment of the invention. After i.v. injection of FDGlcU or fluorescein, mice were analyzed with Living Image® software. […] The fluorescent intensity in CT26/mβG-eB7 tumors was about 240 times greater than in the CT26 tumors (FIG. 9). Fluorescent signals were also observed in the intestinal tract.

mβG-eB7 [2] = biological target: T1, mβG-eB7; assay: In vivo imaging of FDGlcU in nude mice with HCC36 tumors injected with Ad5/mβG-eB7; settings: 10^9 pfu intratumoral, FDGlcU i.v. two days later
Description: To image Ad5/mβG-eB7, nude mice (n=3) bearing established HCC36 tumors (200-300 mm^3) in their left and right chest's regions were injected in the right HCC36 tumor with 10^9 pfu of Ad5/mβG-eB7 in 50 μl of phosphate-buffered saline (PBS). Two days later, the mice were i.v. injected with 500 μg of FDGlcU. Whole-body images were obtained in 3 min scans over 2 hour.
After the tumors grew, 10^9 pfu of Ad5/mβG-eB7 was directly injected into the HCC36 tumor on the right side of the mouse. Two days later, the mouse was i.v. injected with FDGlcU and whole-body optical imaging was performed.
Tumor cells were collected 30 minutes after FDGlcU injection were stained with X-GlcA and nuclear fast red and then viewed under phase contrast and fluorescence microscopes.

mβG-eB7 [3] = biological target: T1, mβG-eB7; assay: FDGlcU hydrolysis on live CT26 and CT26/mβG-eB7 cells, confocal microscopy; format: cell-based; settings: 40 μM FDGlcU, pH 6.5, 37° C., 40 minutes
Description: For example, functional expression of membrane bound β-glucuronidase on a host cell can be measured by incubating the host cells (with and without the recombinant reporter gene systems, such as CT26 or CT26/mβG-eB7 cells) with 40 μM FDGlcU (Invitrogen, Calsbad, Calif.) in phosphate-buffered saline containing 0.1% BSA, pH 6.5 at 37° C. for 40 minutes and then staining the cells with anti-myc antibody (5 μg/ml, clone Myc 1-9EIO.2, American Type Culture Collection, Manassas, Va.) at about 4° C. for about 1 hour. The cells can be washed with cold phosphate-buffered saline and incubated with rhodamine-conjugated rabbit anti-mouse IgG antibody (5 μg/ml) at about 4° C. for about 1 hour. The cells are then washed with cold phosphate-buffered saline, mounted with fluorescence mounting medium (anti fade; DakoCytomation, Carpinteria, Calif.), and viewed under a digital fluorescence confocal microscope.

mβG-eB7 [4] = biological target: T1, mβG-eB7; assay: FDGlcU staining of HCC36 cells infected with Ad5/mβG-eB7, flow cytometer; format: cell-based
Text: HCC36 cells (open curve) and HCC36 cells infected with Ad5/mβG-eB7 (solid curve) were stained for the presence of the […] epitope in mβG-eB7 (left panel) or directly stained with FDGlcU (right panel) and then analyzed on a flow cytometer.
As shown by staining of membrane β-glucuronidase with anti-myc antibody in the left panel of FIG. 10, HCC36 cells were successfully infected with Ad5/mβG-eB7.

hβG-eB7 = biological target: T2, hβG-eB7 (UniProt P08236+Q00609, L649P); assay: In vivo imaging of FDGlcU in nude mice bearing EJ and EJ/hβG-eB7 tumors; design: species or system human; settings: 500 μg i.v.
T2 construct: expressed in transfected cells; host or cells: EJ human bladder carcinoma cells, retroviral transduction with pLNCX-hβG-eB7; tumours in nude mice
T2 sequence (P08236+Q00609 with tags, fused parts or gaps P08236:L649P): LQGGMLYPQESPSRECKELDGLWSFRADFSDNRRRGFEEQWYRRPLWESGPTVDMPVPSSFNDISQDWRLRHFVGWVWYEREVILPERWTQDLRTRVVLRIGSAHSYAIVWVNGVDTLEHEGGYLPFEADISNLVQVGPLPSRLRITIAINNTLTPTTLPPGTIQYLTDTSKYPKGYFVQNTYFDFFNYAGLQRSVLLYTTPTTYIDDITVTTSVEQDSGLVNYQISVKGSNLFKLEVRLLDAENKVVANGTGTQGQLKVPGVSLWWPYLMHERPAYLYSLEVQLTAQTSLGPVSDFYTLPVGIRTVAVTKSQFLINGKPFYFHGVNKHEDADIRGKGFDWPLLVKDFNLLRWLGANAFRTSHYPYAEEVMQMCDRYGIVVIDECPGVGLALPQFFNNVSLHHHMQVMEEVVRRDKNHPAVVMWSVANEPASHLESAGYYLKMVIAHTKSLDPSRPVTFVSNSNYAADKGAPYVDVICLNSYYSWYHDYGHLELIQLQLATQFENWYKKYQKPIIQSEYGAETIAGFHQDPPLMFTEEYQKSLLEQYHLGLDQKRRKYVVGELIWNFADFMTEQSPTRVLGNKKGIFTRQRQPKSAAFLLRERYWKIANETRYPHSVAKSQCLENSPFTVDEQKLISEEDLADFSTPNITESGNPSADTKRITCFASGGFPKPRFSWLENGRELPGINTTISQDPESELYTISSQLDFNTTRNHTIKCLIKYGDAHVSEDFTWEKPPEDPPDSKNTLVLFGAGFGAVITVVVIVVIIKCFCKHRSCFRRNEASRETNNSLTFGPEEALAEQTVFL
Description: Retroviral vector pLNCX-hβG-eB7 was constructed and infected to EJ human bladder carcinoma cells (EJ/hβG-eB7) to express functionally active human β-glucuronidase on the membrane. hβG-eB7 was imaged in nude mice (n=3) bearing established EJ and EJ/hβG-eB7 tumors (200-300 mm^3) in their left and right chest regions, respectively, by i.v. injecting 500 μg FDGlcU and performing imaging and histological analysis of fluorescent intensity and βG activity as described above.
FDGlcU was i.v. injected into mice bearing EJ (left) and EJ/hβG-eB7 (right) tumors and whole-body images were acquired at the indicated times (3 mins, 30 mins, 60 mins). […] Live EJ cells (open curve) and EJ/hβG-eB7 cells (solid curve) were immunofluorescence stained for the myc epitope (left panel) or incubated with FDGlcU (right panel), respectively, and analyzed on a flow cytometer.

mβG-eB7 [5] = biological target: T1, mβG-eB7; assay: In vivo whole-body optical imaging of FDGlcU activation in mice bearing CT26 and CT26/mβG-eB7 tumors; settings: Balb/c mice, 500 μg i.v.
Description: To investigate whether expression sites of membrane bound β-glucuronidase reporter system could be non-invasively detected (in vivo imaging), Balb/c mice bearing established CT26 and CT26/mβG-eB7 colon tumors in their left and right chest regions, respectively, were intravenously injected with about 500 μg of non-fluorescent FDGlcU. Whole-body images of the mice were acquired by performing 3 minute scans.
As an example, Balb/c mice (n=3) bearing established CT26 and CT26/mβG tumors (200-300 mm^3) in their left and right chest regions, respectively, were i.v. injected with 500 μg FDGlcU. Whole-body images of pentobarbital-anesthetized mice were obtained by performing 3 minutes scans over 90 minutes on a Kodak IS2000MM optical imaging system. The fluorescence intensities were analyzed with KODAK 1D Image Analysis Software.
The distribution of activated FDGlcU in CT26 (open circle) and CT26/mβG-eB7 (black dot) tumors (n=4) was determined by measuring fluorescence intensities in 3 minute scans performed over 90 minutes.

mβG-eB7 [6] = biological target: T1, mβG-eB7; assay: ^124I-ph-trap-glu conversion by CT26/mβG-eB7 or CT26 cells, cell radioactivity in gamma-counter; format: cell-based; settings: graded concentrations, room temperature, about 40 mins
Description: Graded concentrations of the ^124I-trap-glu probe was added to 96-well microtiter plates coated with CT26/mβG-eB7 (▪) or CT26 cells (□) in phosphate-buffered saline at room temperature for about 40 mins. The plates were then washed to remove non-precipitated probes and the cells were collected by treatment with trypsin. The radioactivity of cells was then measured in a gamma-counter.

[7] = biological target: Recombinant E. coli β-glucuronidase (Escherichia coli, UniProt P05804); assay: Trapping of FITC-trap-glu on coated β-glucuronidase detected by anti-FITC antibody ELISA; format: biochemical; settings: β-glucuronidase and BSA about 2 μg/well, serial dilutions, about 60 mins
Description: Recombinant E. coli β-glucuronidase (about 2 μg/well) and bovine serum albumin (about 2 μg/well) were coated in 96 well microtiter plates and blocked with about 2% of skin milk. Serial dilutions of the FITC-trap-glu probe in phosphate-buffered saline were added to the wells of the microtiter plates at room temperature for about 60 mins. The plates were washed 3 times with phosphate-buffered saline. The plates were stained with about 1 μg/mL of an anti-FITC antibody followed by about 1 μg/mL of horse-radish peroxidase-conjugated anti-mouse IgG. The plates were washed and bound peroxidase activity was measured by adding about 100 μL/well of ABTS solution (about 0.4 mg/mL of 2,2′ azino-di(3-ethylbenzthiazoline-6-sulfonic acid), about 0.003% of H2O2, about 100 mM of phosphate-citrate, pH 4.0) for about 30 min at room temperature.

mβG-eB7 [8] = biological target: T1, mβG-eB7; assay: ^124I-trap-glu conversion by CT26/mβG-eB7 or CT26 cells, bound radioactivity in gamma-counter; format: cell-based; settings: graded concentrations, room temperature, about 40 mins
Description: Graded concentrations of the ^124I-trap-glu probe/substrate were incubated with CT26/mβG-eB7 (▪) or CT26 cells (□) in phosphate-buffer saline at room temperature for about 40 mins. The plates containing the transfected cells were washed and bound radioactivity was measured in a gamma-counter.

Sequence of Recombinant E. coli β-glucuronidase (P05804 whole entry): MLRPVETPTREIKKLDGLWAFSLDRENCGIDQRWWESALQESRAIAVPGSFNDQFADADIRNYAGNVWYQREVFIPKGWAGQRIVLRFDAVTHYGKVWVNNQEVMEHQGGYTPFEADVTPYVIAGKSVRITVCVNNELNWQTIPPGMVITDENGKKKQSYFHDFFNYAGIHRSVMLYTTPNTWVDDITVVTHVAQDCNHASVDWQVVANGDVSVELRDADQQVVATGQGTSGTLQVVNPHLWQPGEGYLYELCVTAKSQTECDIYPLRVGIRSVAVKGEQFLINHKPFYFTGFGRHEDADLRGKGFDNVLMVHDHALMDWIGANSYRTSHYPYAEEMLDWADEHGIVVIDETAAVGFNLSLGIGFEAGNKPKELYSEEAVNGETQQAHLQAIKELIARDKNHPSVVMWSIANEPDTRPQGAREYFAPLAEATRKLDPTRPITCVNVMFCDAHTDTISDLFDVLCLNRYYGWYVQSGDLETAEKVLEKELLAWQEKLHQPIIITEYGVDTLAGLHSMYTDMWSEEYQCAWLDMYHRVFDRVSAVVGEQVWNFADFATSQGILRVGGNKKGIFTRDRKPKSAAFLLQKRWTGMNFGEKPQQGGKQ

## O=C1OC2(c3ccc(O)cc3Oc3cc(O)ccc32)c2ccccc21 [fluorescein]
mβG-eB7 [1]; tumor-bearing mice
  in vivo biodistribution: largely accumulated in the intestinal tract and kidneys

## O=C1OC2(c3ccc(O[C@@H]4O[C@H](C(=O)O)[C@@H](O)[C@H](O)[C@H]4O)cc3Oc3cc(O[C@@H]4O[C@H](C(=O)O)[C@@H](O)[C@H](O)[C@H]4O)ccc32)c2ccccc21 [FDGlcU, fluorescein di-β-D-glucuronide]
mβG-eB7 [2]
  fluorescence of Ad5/mβG-eB7 injected HCC36 tumor vs non-infected HCC36 tumors: obvious fluorescence
mβG-eB7 [3]
  conversion of FDGlcU to fluorescein on cells: only CT26/mβG-e-B7 cells
mβG-eB7 [4]
  activation of FDGlcU at Ad5/mβG-eB7 infected HCC36 cells: activated to fluorescent product at the infected cells
hβG-eB7
  conversion to fluorescent reporter in EJ/hβG-eB7 vs control EJ tumors: preferentially converted to a fluorescent reporter in EJ/hβG-eB7 tumors but not in control tumors
mβG-eB7 [1]; whole-body sections
  fluorescent intensity in CT26/mβG-eB7 tumors relative to CT26 tumors: about 240 times
mβG-eB7 [5]; 3 minute scans over 90 minutes
  time of highest fluorescence after FDGlcU injection: 30 min
mβG-eB7 [5]; whole-body images at 3, 30, 60 mins
  conversion of FDGlcU to fluorescein in CT26/mβG tumors vs control CT26 tumors: selectively converted to fluorescein

## ^124I-phenolphthalin glucuronide [^124I-ph-trap-glu]
mβG-eB7 [6]
  conversion of probe to ^124I-trap reporter product in CT26/mβG-eB7 vs CT26 cells: specifically converts

## N-fluorescein-isothiocyanato (3-difluoromethylphenyl)-β-D-glucopyronuronate [FITC-trap-glu]
[7]
  trapping by β-glucuronidase detected by anti-FITC antibody: specific trapping

## ^124I-difluoromethylphenol glucuronide [^124I-trap-glu]
mβG-eB7 [8]
  conversion of probe to ^124I-trap product in CT26/mβG-eB7 vs CT26 cells: specifically converts
